How the values were obtained:
Assay in all cases: relative viability (nuclei count vs DMSO), 5 days (fraction); higher = more cells survive
[1] = compound: CN1CCN(CC1)C2=CC(=C(C=C2)NC3=NC(=C(S3)C(=O)C4=C(C=CC=C4Cl)Cl)N)OC [XMD14-99] + CC(C)C[C@H](NC(=O)[C@H](Cc1ccccc1)NC(=O)c1cnccn1)B(O)O [Bortezomib] (partner 0.002 µM)
Procedure, shortened: (§1)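 Relative viability equals treated-well nuclei counts divided by vehicle-well nuclei counts. Counts came from 4× images of lung cancer cell lines grown in 1536-well plates for 5 days after pin-tool dosing on the day after seeding. Dosing used one drug alone or a fixed anchor-drug dose plus five library-drug doses (not always all listed) in √10 steps, and values are medians of duplicate plates.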

[2] = compound: CN1CCN(CC1)C2=CC(=C(C=C2)NC3=NC(=C(S3)C(=O)C4=C(C=CC=C4Cl)Cl)N)OC [XMD14-99] + Nc1nc2[nH]cc(CCc3ccc(C(=O)N[C@@H](CCC(=O)O)C(=O)O)cc3)c2c(=O)[nH]1 [Pemetrexed] (partner 0.2 µM)
Procedure, shortened: as §1

[3] = compound: N[C@@H]1CCCN(c2c(/C=C3\SC(=O)NC3=O)cccc2-c2ccccc2)C1 [AZD1208] + N=C(N)NC(=N)NCCc1ccccc1 [Phenformin] (partner 250 µM)
Procedure, shortened: as §1

[4] = compound: CN1CCN(CC1)C2=CC(=C(C=C2)NC3=NC(=C(S3)C(=O)C4=C(C=CC=C4Cl)Cl)N)OC [XMD14-99]
Procedure, shortened: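 Hoechst staining, done together with fixation and permeabilisation, marked nuclei for 4× imaging and MetaXpress counting. This followed 5 days without medium change after lung cancer cell lines, kept overnight at 37 °C in 1536-well plates, were pinned with five library-drug doses (not always all listed) spaced by √10 on vehicle-anchored plates. Viability is the ratio of treated-well to vehicle-well nuclei, expressed as a median across plates. Plates passed only at control CV below 25% with at least one doubling.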

For LXF-289, the relative viability ([1]; first compound 0.08 µM) was 1.04, the relative viability ([1]; first compound 0.8 µM) was 0.978 and the relative viability ([1]; first compound 2.53 µM) was 0.945. It also gave a relative viability ([1]; first compound 8 µM) of 0.841, a relative viability ([2]; first compound 0.08 µM) of 0.692 and a relative viability ([2]; first compound 0.8 µM) of 0.862. The relative viability ([2]; first compound 2.53 µM) was 0.85, the relative viability ([2]; first compound 8 µM) was 0.781 and the relative viability ([3]; first compound 0.08 µM) was 0.507. The relative viability ([3]; first compound 0.253 µM) was 0.55, the relative viability ([3]; first compound 0.8 µM) was 0.472 and the relative viability ([3]; first compound 2.53 µM) was 0.528. For the same cell line, the relative viability ([3]; first compound 8 µM) was 0.518, the relative viability ([4]; 0.08 µM) was 1.02 and the relative viability ([4]; 0.8 µM) was 0.964. It also gave a relative viability ([4]; 2.53 µM) of 0.976 and a relative viability ([4]; 8 µM) of 0.889.
NCI-H23 showed a relative viability ([1]; first compound 0.08 µM) of 0.95, a relative viability ([1]; first compound 0.8 µM) of 0.908 and a relative viability ([1]; first compound 2.53 µM) of 1.12. It also gave a relative viability ([1]; first compound 8 µM) of 0.728, a relative viability ([2]; first compound 0.08 µM) of 0.687 and a relative viability ([2]; first compound 0.8 µM) of 0.783. For the same cell line, the relative viability ([2]; first compound 2.53 µM) was 0.745, the relative viability ([2]; first compound 8 µM) was 0.494 and the relative viability ([3]; first compound 0.08 µM) was 0.793. The relative viability ([3]; first compound 0.253 µM) was 0.828, the relative viability ([3]; first compound 0.8 µM) was 0.627 and the relative viability ([3]; first compound 2.53 µM) was 0.798. For the same cell line, the relative viability ([3]; first compound 8 µM) was 0.609, the relative viability ([4]; 0.08 µM) was 1.01 and the relative viability ([4]; 0.8 µM) was 0.996. For the same cell line, the relative viability ([4]; 2.53 µM) was 0.911 and the relative viability ([4]; 8 µM) was 0.685.
Work on NCI-H322M yielded a relative viability ([1]; first compound 0.08 µM) of 1.12, a relative viability ([1]; first compound 0.8 µM) of 1.33 and a relative viability ([1]; first compound 2.53 µM) of 1.44. For the same cell line, the relative viability ([1]; first compound 8 µM) was 1.24, the relative viability ([2]; first compound 0.08 µM) was 0.654 and the relative viability ([2]; first compound 0.8 µM) was 0.57. The relative viability ([2]; first compound 2.53 µM) was 0.606, the relative viability ([2]; first compound 8 µM) was 0.535 and the relative viability ([3]; first compound 0.08 µM) was 0.761. The relative viability ([3]; first compound 0.253 µM) was 0.75, the relative viability ([3]; first compound 0.8 µM) was 0.731 and the relative viability ([3]; first compound 2.53 µM) was 0.741. The relative viability ([3]; first compound 8 µM) was 0.782, the relative viability ([4]; 0.08 µM) was 0.994 and the relative viability ([4]; 0.8 µM) was 0.977. The relative viability ([4]; 2.53 µM) was 0.86 and the relative viability ([4]; 8 µM) was 0.762.
NCI-H441 was tested, and the relative viability ([1]; first compound 0.08 µM) was 0.562, the relative viability ([1]; first compound 0.8 µM) was 0.653 and the relative viability ([1]; first compound 2.53 µM) was 0.473. It also gave a relative viability ([1]; first compound 8 µM) of 0.587, a relative viability ([2]; first compound 0.08 µM) of 0.257 and a relative viability ([2]; first compound 0.8 µM) of 0.289. The relative viability ([2]; first compound 2.53 µM) was 0.235, the relative viability ([2]; first compound 8 µM) was 0.254 and the relative viability ([3]; first compound 0.08 µM) was 0.782. It also gave a relative viability ([3]; first compound 0.253 µM) of 0.66, a relative viability ([3]; first compound 0.8 µM) of 0.609 and a relative viability ([3]; first compound 2.53 µM) of 0.641. It also gave a relative viability ([3]; first compound 8 µM) of 0.556, a relative viability ([4]; 0.08 µM) of 0.912 and a relative viability ([4]; 0.8 µM) of 0.968. For the same cell line, the relative viability ([4]; 2.53 µM) was 0.847 and the relative viability ([4]; 8 µM) was 0.645.
With NCI-H460 the relative viability ([1]; first compound 0.08 µM) was 1.06, the relative viability ([1]; first compound 0.8 µM) was 1.15 and the relative viability ([1]; first compound 2.53 µM) was 0.983. For the same cell line, the relative viability ([1]; first compound 8 µM) was 0.784, the relative viability ([2]; first compound 0.08 µM) was 0.067 and the relative viability ([2]; first compound 0.8 µM) was 0.066. It also gave a relative viability ([2]; first compound 2.53 µM) of 0.07, a relative viability ([2]; first compound 8 µM) of 0.0715 and a relative viability ([3]; first compound 0.08 µM) of 0.483. It also gave a relative viability ([3]; first compound 0.253 µM) of 0.697, a relative viability ([3]; first compound 0.8 µM) of 0.574 and a relative viability ([3]; first compound 2.53 µM) of 0.489. For the same cell line, the relative viability ([3]; first compound 8 µM) was 0.545, the relative viability ([4]; 0.08 µM) was 1.02 and the relative viability ([4]; 0.8 µM) was 0.965. The relative viability ([4]; 2.53 µM) was 0.954 and the relative viability ([4]; 8 µM) was 0.841.
Work on NCI-H520 yielded a relative viability ([1]; first compound 0.08 µM) of 0.622, a relative viability ([1]; first compound 0.8 µM) of 0.604 and a relative viability ([1]; first compound 2.53 µM) of 0.425. For the same cell line, the relative viability ([1]; first compound 8 µM) was 0.279, the relative viability ([2]; first compound 0.08 µM) was 0.624 and the relative viability ([2]; first compound 0.8 µM) was 0.625. The relative viability ([2]; first compound 2.53 µM) was 0.596, the relative viability ([2]; first compound 8 µM) was 0.501 and the relative viability ([3]; first compound 0.08 µM) was 0.47. The relative viability ([3]; first compound 0.253 µM) was 0.577, the relative viability ([3]; first compound 0.8 µM) was 0.476 and the relative viability ([3]; first compound 2.53 µM) was 0.369. The relative viability ([3]; first compound 8 µM) was 0.279, the relative viability ([4]; 0.08 µM) was 0.903 and the relative viability ([4]; 0.8 µM) was 0.96. The relative viability ([4]; 2.53 µM) was 0.932 and the relative viability ([4]; 8 µM) was 0.818.
NCI-H596 was tested, and the relative viability ([1]; first compound 0.08 µM) was 0.962, the relative viability ([1]; first compound 0.8 µM) was 1.07 and the relative viability ([1]; first compound 2.53 µM) was 1.07. It also gave a relative viability ([1]; first compound 8 µM) of 0.797, a relative viability ([2]; first compound 0.08 µM) of 0.465 and a relative viability ([2]; first compound 0.8 µM) of 0.48. It also gave a relative viability ([2]; first compound 2.53 µM) of 0.447, a relative viability ([2]; first compound 8 µM) of 0.494 and a relative viability ([3]; first compound 0.08 µM) of 0.674. For the same cell line, the relative viability ([3]; first compound 0.253 µM) was 1.01, the relative viability ([3]; first compound 0.8 µM) was 0.689 and the relative viability ([3]; first compound 2.53 µM) was 0.668. It also gave a relative viability ([3]; first compound 8 µM) of 0.477, a relative viability ([4]; 0.08 µM) of 0.944 and a relative viability ([4]; 0.8 µM) of 1.05. It also gave a relative viability ([4]; 2.53 µM) of 1.01 and a relative viability ([4]; 8 µM) of 0.887.
With NCI-H647 the relative viability ([1]; first compound 0.08 µM) was 0.914, the relative viability ([1]; first compound 0.8 µM) was 1.04 and the relative viability ([1]; first compound 2.53 µM) was 0.928. The relative viability ([1]; first compound 8 µM) was 0.745, the relative viability ([2]; first compound 0.08 µM) was 0.147 and the relative viability ([2]; first compound 0.8 µM) was 0.14. It also gave a relative viability ([2]; first compound 2.53 µM) of 0.209, a relative viability ([2]; first compound 8 µM) of 0.141 and a relative viability ([3]; first compound 0.08 µM) of 0.459. For the same cell line, the relative viability ([3]; first compound 0.253 µM) was 0.837, the relative viability ([3]; first compound 0.8 µM) was 0.344 and the relative viability ([3]; first compound 2.53 µM) was 0.344. For the same cell line, the relative viability ([3]; first compound 8 µM) was 0.352, the relative viability ([4]; 0.08 µM) was 0.981 and the relative viability ([4]; 0.8 µM) was 0.99. The relative viability ([4]; 2.53 µM) was 0.92 and the relative viability ([4]; 8 µM) was 0.819.
For NCI-H650, the relative viability ([1]; first compound 0.08 µM) was 0.97, the relative viability ([1]; first compound 0.8 µM) was 0.847 and the relative viability ([1]; first compound 2.53 µM) was 0.724. It also gave a relative viability ([1]; first compound 8 µM) of 0.649, a relative viability ([2]; first compound 0.08 µM) of 0.932 and a relative viability ([2]; first compound 0.8 µM) of 1.03. It also gave a relative viability ([2]; first compound 2.53 µM) of 0.929, a relative viability ([2]; first compound 8 µM) of 0.961 and a relative viability ([3]; first compound 0.08 µM) of 0.535. The relative viability ([3]; first compound 0.253 µM) was 0.51, the relative viability ([3]; first compound 0.8 µM) was 0.448 and the relative viability ([3]; first compound 2.53 µM) was 0.416. For the same cell line, the relative viability ([3]; first compound 8 µM) was 0.427, the relative viability ([4]; 0.08 µM) was 1.02 and the relative viability ([4]; 0.8 µM) was 1. For the same cell line, the relative viability ([4]; 2.53 µM) was 0.98 and the relative viability ([4]; 8 µM) was 0.808.

Reference: the supplement of paper PMC10307832
